pIC50: −log10 of the molar value.

This test deals with Phosphatidylinositol 4,5-bisphosphate 3-kinase catalytic subunit alpha isoform (Homo sapiens, UniProt P42336). Put plainly: Inhibition of PI3Kalpha.
Phosphatidylinositol 4,5-bisphosphate 3-kinase catalytic subunit alpha isoform, sequence (P42336 whole entry, canonical isoform): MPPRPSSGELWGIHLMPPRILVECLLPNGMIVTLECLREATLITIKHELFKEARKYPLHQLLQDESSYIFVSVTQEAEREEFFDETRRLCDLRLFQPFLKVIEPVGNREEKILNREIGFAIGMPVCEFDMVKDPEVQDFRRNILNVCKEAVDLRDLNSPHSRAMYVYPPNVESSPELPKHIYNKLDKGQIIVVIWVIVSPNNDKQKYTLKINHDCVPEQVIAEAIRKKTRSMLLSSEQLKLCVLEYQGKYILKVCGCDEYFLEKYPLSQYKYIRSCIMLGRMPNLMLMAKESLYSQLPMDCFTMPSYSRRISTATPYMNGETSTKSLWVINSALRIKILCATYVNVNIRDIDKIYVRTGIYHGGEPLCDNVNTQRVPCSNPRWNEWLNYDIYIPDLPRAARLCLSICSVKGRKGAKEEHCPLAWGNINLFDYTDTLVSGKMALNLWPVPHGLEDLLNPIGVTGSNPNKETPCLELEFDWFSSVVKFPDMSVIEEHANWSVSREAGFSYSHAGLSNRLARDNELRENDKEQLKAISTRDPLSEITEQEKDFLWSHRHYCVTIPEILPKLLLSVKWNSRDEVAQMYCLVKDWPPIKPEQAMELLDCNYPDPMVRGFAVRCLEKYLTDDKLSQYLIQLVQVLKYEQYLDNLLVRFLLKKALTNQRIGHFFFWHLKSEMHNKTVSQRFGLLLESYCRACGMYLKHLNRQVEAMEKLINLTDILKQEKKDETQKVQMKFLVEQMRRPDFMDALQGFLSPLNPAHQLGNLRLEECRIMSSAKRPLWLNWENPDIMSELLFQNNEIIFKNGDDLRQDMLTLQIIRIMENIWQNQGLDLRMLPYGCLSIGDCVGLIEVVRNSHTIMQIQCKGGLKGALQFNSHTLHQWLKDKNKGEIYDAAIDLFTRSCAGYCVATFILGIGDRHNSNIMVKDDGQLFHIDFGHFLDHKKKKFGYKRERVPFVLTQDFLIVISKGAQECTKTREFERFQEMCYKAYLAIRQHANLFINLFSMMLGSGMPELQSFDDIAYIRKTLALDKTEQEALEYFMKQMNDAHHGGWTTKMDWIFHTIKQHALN
The molecule `Cc1ccc(OCC(=O)Nc2ccc(-c3nnc(-c4ccco4)o3)cc2)cc1` had a pIC50 of 4.40. The figure for `Cc1cccc(NC(=O)c2ccc(Cn3cnc4ccccc4c3=O)o2)n1` is 4.55; for `Cc1nc(N/C(N)=N/C(=O)c2ccccc2N)nc2ccccc12` it is 4.64.

Molecule `CCOc1ccc2nc3cc(/N=C/c4ccco4)ccc3c(N)c2c1` had a pIC50 of 4.40.

A word on the pIC50: it is the IC50 on a negative log10 scale, so that one unit is a factor of ten. A higher pIC50 goes with a low IC50.

(Values after ChEMBL document CHEMBL1759964, “Structure-based virtual screening approach to the discovery of phosphoinositide 3-kinase alpha inhibitors” (Bioorg Med Chem Lett, 2011).)
